Source: article PMC7377239, “Cardiovascular Effects of Polychlorinated Biphenyls and Their Major Metabolites” (Environmental Health Perspectives, 2020)
Where a name gives a salt, the structure may show the parent alone. Read-outs that look alike come from different tables or passages of the source.

What was measured:
[1] = tested on: iCell cardiomyocytes (human iPSC-derived cardiomyocytes); experiment: High-content imaging of cytotoxicity and mitochondrial integrity in iPSC-CMs; type: cell-based; conditions: Homo sapiens; for viability at 0.01 µM / activity at 0.01 µM / viability at 0.1 µM / activity at 0.1 µM / viability at 1 µM / activity at 1 µM / viability at 10 µM / activity at 10 µM / viability at 100 µM / activity at 100 µM: Cardiomyocyte, 0.00 µM = 100.00; for viability at 0.1 µM / activity at 0.1 µM: 0.10 µM; for minimal effective concentration: iPSC-CM
Summary of the method: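 Readouts from high-content images were normalized to vehicle controls containing 0.5% vol/vol DMSO. They were fit to a four-parameter logistic model in R. Points of departure were set using a cutoff of one standard deviation across vehicle control means. Where no concentration–response was seen, the top tested concentration of 100μM was assigned as the no observable adverse effect level.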

[2] = tested on: HUVECs; experiment: High-content imaging cytotoxicity in HUVECs, 24 h; type: cell-based, human; conditions: Homo sapiens, HUVEC, 24 h, HUVECs; for viability at 0.01 µM / activity at 0.01 µM / viability at 0.1 µM / activity at 0.1 µM / viability at 1 µM / activity at 1 µM / viability at 10 µM / activity at 10 µM / viability at 100 µM / activity at 100 µM: 0.00 µM = 100.00; for viability at 0.1 µM / activity at 0.1 µM: 0.10 µM; for minimal effective concentration: top concentration 100.00 µM
Summary of the method: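 HUVECs (passages 1–5) grown to monolayer over 3–5 d, then exposed 24 h at 37°C, 5% CO2; stained with Hoechst 33342, MitoTracker Orange and calcein AM and imaged at 10×. Readouts normalized to 0.5% DMSO vehicle, four-parameter logistic fit; POD at one-SD cutoff, 100μM assigned when no response.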

[3] = 24 hr, read-out: huvec.cyto.24hr
[4] = 24 hr, read-out: huvec.mito.24hr
[5] = 24 hr, read-out: huvec.mitoint.24hr
[6] = 24 hr, read-out: huvec.nma.24hr
[7] = 24 hrs, read-out: huvec.tc.24hrs

## O=S(=O)(O)Oc1ccc(-c2ccc(Cl)cc2)cc1 [4'-yl PCB 3 sulfate]
[1]; 1.5 h, read-out: cm.cam.90min
  viability at 0.01 µM: 90.6%
  viability at 0.1 µM: 97.2%
  viability at 1 µM: 101%
  viability at 10 µM: 102%
  viability at 100 µM: 96.5%
[1]; 1.5 h, read-out: cm.mii.90min
  activity at 0.01 µM: 111%
  activity at 0.1 µM: 109%
  activity at 1 µM: 109%
  activity at 10 µM: 107%
  activity at 100 µM: 113%
[1]; 1.5 h, read-out: cm.mito.90min
  activity at 0.01 µM: 90.4%
  activity at 0.1 µM: 97.2%
  activity at 1 µM: 101%
  activity at 10 µM: 102%
  activity at 100 µM: 96.7%
[1]; 1.5 h, read-out: cm.tc.90min
  viability at 0.01 µM: 90.5%
  viability at 0.1 µM: 97.5%
  viability at 1 µM: 102%
  viability at 10 µM: 102%
  viability at 100 µM: 96.7%
[1]; 24 h, read-out: cm.cam.24hrs
  viability at 0.01 µM: 97.3%
  viability at 0.1 µM: 105%
  viability at 1 µM: 107%
  viability at 10 µM: 102%
  viability at 100 µM: 104%
[1]; 24 h, read-out: cm.mii.24hrs
  activity at 0.01 µM: 98.4%
  activity at 0.1 µM: 111%
  activity at 1 µM: 98.9%
  activity at 10 µM: 92%
  activity at 100 µM: 82.3%
[1]; 24 h, read-out: cm.mito.24hrs
  activity at 0.01 µM: 95.5%
  activity at 0.1 µM: 106%
  activity at 1 µM: 108%
  activity at 10 µM: 101%
  activity at 100 µM: 103%
[1]; 24 h, read-out: cm.tc.24hrs
  viability at 0.01 µM: 97.4%
  viability at 0.1 µM: 106%
  viability at 1 µM: 107%
  viability at 10 µM: 102%
  viability at 100 µM: 105%
[1]; 1.5 h, read-out: cm.cam.90min POD
  minimal effective concentration: 100 µM
[1]; 1.5 h, read-out: cm.mii.90min POD
  minimal effective concentration: 100 µM
[1]; 1.5 h, read-out: cm.mito.90min POD
  minimal effective concentration: 100 µM
[1]; 1.5 h, read-out: cm.tc.90min POD
  minimal effective concentration: 100 µM
[1]; 24 h, read-out: cm.cam.24hrs POD
  minimal effective concentration: 100 µM
[1]; 24 h, read-out: cm.mii.24hrs POD
  minimal effective concentration: 53.5 µM
[1]; 24 h, read-out: cm.mito.24hrs POD
  minimal effective concentration: 100 µM
[1]; 24 h, read-out: cm.tc.24hrs POD
  minimal effective concentration: 100 µM
[2]; [3]
  viability at 0.01 µM: 98.5%
  viability at 0.1 µM: 90.8%
  viability at 1 µM: 87.4%
  viability at 10 µM: 103%
  viability at 100 µM: 88.9%
[2]; [4]
  activity at 0.01 µM: 97.5%
  activity at 0.1 µM: 89.7%
  activity at 1 µM: 86.3%
  activity at 10 µM: 103%
  activity at 100 µM: 87.6%
[2]; [5]
  activity at 0.01 µM: 90.2%
  activity at 0.1 µM: 109%
  activity at 1 µM: 97.9%
  activity at 10 µM: 83.8%
  activity at 100 µM: 114%
[2]; [6]
  activity at 0.01 µM: 99%
  activity at 0.1 µM: 102%
  activity at 1 µM: 100%
  activity at 10 µM: 97.1%
  activity at 100 µM: 97.7%
[2]; 24 hr, read-out: huvec.cyto.24hr POD
  minimal effective concentration: 100 µM
[2]; 24 hr, read-out: huvec.mito.24hr POD
  minimal effective concentration: 100 µM
[2]; 24 hr, read-out: huvec.mitoint.24hr POD
  minimal effective concentration: 100 µM
[2]; 24 hr, read-out: huvec.nma.24hr POD
  minimal effective concentration: 100 µM
[2]; [7]
  viability at 0.01 µM: 98.5%
  viability at 0.1 µM: 90.8%
  viability at 1 µM: 87.4%
  viability at 10 µM: 103%
  viability at 100 µM: 88.9%
[2]; 24 hrs, read-out: huvec.tc.24hrs POD
  minimal effective concentration: 100 µM
